Legend:
Assay type in all cases: binding
[1] = target: SW480 colon carcinoma cells lysate proteins (Homo sapiens, UniProt P15559); details: PreyGene NQO1
[2] = target: SW480 colon carcinoma cells lysate proteins (Homo sapiens, UniProt Q02878); details: PreyGene RPL6; SW480 cells
[3] = target: T1, SW480 colon carcinoma cells lysate proteins (Homo sapiens, UniProt P22314); details: PreyGene UBA1
T1 sequence (P22314 1-1058): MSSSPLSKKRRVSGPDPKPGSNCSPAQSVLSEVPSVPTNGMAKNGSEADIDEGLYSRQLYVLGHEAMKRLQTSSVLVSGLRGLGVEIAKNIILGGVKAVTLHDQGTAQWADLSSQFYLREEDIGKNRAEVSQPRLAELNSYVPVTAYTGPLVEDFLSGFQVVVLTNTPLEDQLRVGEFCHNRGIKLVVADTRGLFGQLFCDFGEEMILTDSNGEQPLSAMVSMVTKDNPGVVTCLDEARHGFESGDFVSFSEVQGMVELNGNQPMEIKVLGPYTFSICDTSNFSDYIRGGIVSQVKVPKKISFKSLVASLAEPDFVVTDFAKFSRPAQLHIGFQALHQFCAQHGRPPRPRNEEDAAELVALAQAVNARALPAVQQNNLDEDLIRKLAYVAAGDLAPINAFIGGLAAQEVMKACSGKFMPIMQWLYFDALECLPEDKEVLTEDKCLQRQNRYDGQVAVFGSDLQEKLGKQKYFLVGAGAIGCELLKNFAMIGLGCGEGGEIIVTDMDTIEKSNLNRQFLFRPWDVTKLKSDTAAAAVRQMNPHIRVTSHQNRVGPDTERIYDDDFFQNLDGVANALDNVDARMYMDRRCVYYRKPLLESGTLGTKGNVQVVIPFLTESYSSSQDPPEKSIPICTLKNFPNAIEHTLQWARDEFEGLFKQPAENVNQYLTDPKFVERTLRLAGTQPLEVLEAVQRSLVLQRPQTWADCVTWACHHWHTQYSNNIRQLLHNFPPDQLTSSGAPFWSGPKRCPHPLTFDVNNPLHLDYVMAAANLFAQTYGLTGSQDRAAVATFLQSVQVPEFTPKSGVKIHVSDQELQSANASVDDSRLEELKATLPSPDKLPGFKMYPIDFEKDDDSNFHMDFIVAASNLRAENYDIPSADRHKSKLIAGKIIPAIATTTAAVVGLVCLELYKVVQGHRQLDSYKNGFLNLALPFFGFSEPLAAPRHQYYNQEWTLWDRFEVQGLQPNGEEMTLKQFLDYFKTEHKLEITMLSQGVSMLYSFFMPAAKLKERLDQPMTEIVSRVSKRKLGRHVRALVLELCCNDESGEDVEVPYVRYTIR

[4] = target: T2, SW480 colon carcinoma cells lysate proteins (Homo sapiens, UniProt Q9Y383); details: PreyGene LUC7L2
T2 sequence (Q9Y383 1-392): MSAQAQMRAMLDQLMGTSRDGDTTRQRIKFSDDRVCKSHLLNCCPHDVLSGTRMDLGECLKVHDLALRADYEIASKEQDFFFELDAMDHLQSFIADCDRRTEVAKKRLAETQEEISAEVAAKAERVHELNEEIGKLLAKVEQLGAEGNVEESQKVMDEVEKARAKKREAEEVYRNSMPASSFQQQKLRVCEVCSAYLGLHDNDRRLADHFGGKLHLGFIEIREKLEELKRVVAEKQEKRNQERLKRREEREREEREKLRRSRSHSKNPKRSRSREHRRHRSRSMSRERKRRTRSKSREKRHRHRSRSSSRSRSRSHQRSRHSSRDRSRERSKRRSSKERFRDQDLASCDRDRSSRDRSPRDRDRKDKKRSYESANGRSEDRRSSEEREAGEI

[5] = target: SW480 colon carcinoma cells lysate proteins (Homo sapiens, UniProt P49327); details: PreyGene FASN
[6] = target: T3, SW480 colon carcinoma cells lysate proteins (Homo sapiens, UniProt P26639); details: PreyGene TARS
T3 sequence (P26639 1-723): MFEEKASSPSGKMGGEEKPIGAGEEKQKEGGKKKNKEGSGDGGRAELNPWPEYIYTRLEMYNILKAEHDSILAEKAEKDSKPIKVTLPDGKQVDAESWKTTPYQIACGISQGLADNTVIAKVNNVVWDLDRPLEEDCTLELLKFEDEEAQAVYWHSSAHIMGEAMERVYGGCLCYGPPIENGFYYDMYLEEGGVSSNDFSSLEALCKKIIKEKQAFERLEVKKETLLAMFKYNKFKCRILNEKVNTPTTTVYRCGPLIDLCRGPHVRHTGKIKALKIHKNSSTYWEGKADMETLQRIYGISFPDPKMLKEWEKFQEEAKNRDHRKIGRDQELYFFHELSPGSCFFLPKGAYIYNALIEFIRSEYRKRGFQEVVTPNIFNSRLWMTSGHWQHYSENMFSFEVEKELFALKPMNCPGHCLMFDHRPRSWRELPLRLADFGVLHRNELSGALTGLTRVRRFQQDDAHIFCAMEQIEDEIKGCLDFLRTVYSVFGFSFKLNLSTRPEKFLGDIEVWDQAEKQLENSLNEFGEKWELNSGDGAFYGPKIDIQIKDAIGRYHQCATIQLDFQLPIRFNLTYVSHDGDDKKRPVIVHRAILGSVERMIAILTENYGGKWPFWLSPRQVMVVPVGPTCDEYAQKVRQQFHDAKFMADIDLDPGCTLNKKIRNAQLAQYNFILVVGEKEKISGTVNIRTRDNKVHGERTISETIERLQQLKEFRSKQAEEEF

Chain of SW480 colon carcinoma cells lysate proteins (Homo sapiens, UniProt P49327) (P49327 whole entry): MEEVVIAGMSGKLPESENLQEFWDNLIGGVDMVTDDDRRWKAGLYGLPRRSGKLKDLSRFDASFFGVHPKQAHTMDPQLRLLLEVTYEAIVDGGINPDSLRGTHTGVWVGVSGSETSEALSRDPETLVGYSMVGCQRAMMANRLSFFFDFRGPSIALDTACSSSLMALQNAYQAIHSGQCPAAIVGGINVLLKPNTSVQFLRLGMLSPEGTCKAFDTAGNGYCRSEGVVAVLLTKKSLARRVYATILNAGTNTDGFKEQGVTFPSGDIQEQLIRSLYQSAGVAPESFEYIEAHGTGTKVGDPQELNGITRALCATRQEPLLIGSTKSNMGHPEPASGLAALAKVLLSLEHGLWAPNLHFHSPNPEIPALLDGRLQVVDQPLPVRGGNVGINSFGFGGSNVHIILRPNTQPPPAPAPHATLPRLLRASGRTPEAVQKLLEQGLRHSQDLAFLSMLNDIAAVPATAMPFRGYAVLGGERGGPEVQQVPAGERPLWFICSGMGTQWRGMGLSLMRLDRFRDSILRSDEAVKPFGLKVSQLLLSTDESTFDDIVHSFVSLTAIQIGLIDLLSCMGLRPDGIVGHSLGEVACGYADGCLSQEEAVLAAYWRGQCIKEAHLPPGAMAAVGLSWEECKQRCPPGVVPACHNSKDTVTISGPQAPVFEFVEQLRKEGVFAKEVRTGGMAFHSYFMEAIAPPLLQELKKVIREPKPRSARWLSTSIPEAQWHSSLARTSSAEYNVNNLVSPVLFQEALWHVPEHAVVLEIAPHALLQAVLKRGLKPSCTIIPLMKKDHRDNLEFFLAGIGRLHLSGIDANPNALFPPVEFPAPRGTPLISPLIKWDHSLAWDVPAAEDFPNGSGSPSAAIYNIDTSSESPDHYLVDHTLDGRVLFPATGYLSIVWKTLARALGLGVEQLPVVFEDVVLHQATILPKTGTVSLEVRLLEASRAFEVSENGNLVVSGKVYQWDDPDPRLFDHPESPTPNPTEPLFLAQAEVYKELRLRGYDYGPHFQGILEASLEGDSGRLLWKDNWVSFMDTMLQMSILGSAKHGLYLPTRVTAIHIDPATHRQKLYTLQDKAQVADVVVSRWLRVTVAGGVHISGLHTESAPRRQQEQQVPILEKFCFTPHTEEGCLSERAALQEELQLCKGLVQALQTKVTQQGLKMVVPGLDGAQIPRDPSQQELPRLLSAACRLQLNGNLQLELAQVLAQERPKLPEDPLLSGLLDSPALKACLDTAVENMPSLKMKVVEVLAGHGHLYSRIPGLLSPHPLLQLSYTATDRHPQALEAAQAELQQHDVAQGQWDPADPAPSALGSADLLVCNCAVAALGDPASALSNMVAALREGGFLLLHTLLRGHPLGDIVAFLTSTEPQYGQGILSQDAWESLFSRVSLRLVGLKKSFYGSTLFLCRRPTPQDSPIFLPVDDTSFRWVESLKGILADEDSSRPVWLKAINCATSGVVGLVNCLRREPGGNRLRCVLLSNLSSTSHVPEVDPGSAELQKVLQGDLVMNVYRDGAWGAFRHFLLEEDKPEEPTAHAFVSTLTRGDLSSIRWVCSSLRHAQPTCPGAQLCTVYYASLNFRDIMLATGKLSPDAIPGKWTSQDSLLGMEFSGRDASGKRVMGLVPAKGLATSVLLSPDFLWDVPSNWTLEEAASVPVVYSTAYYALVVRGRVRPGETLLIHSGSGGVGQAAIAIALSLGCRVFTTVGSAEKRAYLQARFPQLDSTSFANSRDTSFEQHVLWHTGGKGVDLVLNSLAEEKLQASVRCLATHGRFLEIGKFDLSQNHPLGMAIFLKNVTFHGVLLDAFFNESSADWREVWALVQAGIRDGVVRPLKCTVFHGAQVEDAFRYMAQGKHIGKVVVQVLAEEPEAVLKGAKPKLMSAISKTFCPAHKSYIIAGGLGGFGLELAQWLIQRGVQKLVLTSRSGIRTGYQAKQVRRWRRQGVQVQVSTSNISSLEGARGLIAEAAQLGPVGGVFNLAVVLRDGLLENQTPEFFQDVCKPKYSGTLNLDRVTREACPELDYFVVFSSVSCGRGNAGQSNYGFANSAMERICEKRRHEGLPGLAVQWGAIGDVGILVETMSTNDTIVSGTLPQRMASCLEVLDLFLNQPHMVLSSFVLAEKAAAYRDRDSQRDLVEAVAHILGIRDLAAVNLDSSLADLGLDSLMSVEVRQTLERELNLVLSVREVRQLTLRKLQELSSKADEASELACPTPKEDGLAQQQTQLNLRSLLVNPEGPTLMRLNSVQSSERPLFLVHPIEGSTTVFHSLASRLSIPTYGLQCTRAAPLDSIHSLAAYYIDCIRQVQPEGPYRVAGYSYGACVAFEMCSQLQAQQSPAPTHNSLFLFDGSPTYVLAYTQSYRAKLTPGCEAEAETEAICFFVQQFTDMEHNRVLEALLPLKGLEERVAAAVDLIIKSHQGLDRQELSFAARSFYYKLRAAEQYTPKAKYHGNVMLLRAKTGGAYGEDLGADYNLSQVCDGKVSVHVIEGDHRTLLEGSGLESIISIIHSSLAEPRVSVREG
Chain of SW480 colon carcinoma cells lysate proteins (Homo sapiens, UniProt P15559) (P15559 whole entry): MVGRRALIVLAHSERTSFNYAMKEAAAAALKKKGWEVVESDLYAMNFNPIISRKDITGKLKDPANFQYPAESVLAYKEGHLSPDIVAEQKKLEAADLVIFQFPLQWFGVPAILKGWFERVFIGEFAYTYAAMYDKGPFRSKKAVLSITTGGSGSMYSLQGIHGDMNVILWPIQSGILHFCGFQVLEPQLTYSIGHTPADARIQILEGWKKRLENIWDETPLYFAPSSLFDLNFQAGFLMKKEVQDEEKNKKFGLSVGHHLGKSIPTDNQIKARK

Compound: C[C@H](Oc1cc(-c2cnn(C3CCNCC3)c2)cnc1N)c1c(Cl)ccc(F)c1Cl [(5)-crizotinib]
- AvgP [1]: 0.3104
- SC.Exp. 1-1 [1]: 2
- SC.Exp. 1-2 [1]: 1
- SC.Exp. 2-1 [1]: 0
- SC.Exp. 2-2 [1]: 0
- Sum (SC.Exp.) [1]: 3
- AvgP [2]: 0
- SC.Exp. 1-1 [2]: 7
- SC.Exp. 1-2 [2]: 11
- SC.Exp. 2-1 [2]: 4
- SC.Exp. 2-2 [2]: 6
- SC.Exp. Sum [2]: 28
- AvgP [3]: 0.4997
- SC.Exp. 1-1 [3]: 15
- SC.Exp. 1-2 [3]: 15
- SC.Exp. 2-1 [3]: 0
- SC.Exp. 2-2 [3]: 0
- Sum (SC.Exp.) [3]: 30
- AvgP [4]: 0.3775
- SC.Exp. 1-1 [4]: 3
- SC.Exp. 1-2 [4]: 3
- SC.Exp. 2-1 [4]: 0
- SC.Exp. 2-2 [4]: 0
- Sum (SC.Exp.) [4]: 6
- AvgP [5]: 0.394
- SC.Exp. 1-1 [5]: 8
- SC.Exp. 1-2 [5]: 8
- SC.Exp. 2-1 [5]: 0
- SC.Exp. 2-2 [5]: 0
- Sum (SC.Exp.) [5]: 16
- AvgP [6]: 0.4614
- SC.Exp. 1-1 [6]: 5
- SC.Exp. 1-2 [6]: 4
- SC.Exp. 2-1 [6]: 0
- SC.Exp. 2-2 [6]: 0
- Sum (SC.Exp.) [6]: 9

— US9446039B2, “Aminoheteroaryl compounds as MTH1 inhibitors” (CEMM—FORSCHUNGSZENTRUM FÜR MOLEKULARE MEDIZIN GMBH, priority 2012, dated 2016)
